Measurements reported in the NIST ThermoML archive (doi:10.1021/je060271a).

Settings: 303.16 K, Liquid, Vibrating tube method

CCCC(=O)OCC(COC(=O)CCC)(COC(=O)CCC)COC(=O)CCC [pentaerythritol tetrabutyrate]
Settings | mass density [kg/m3]
15938 kPa | 1052.3
15972 kPa | 1052.3
16014 kPa | 1052.4
16048 kPa | 1052.3
16090 kPa | 1052.4
16125 kPa | 1052.5
16167 kPa | 1052.5
16209 kPa | 1052.5
16244 kPa | 1052.5
16286 kPa | 1052.6
16323 kPa | 1052.5
16366 kPa | 1052.5
16409 kPa | 1052.7
16446 kPa | 1052.6
16489 kPa | 1052.7
16526 kPa | 1052.7
16571 kPa | 1052.7
16616 kPa | 1052.7
16654 kPa | 1052.7
16700 kPa | 1052.7
16739 kPa | 1052.8
16786 kPa | 1052.8
16833 kPa | 1052.9
16872 kPa | 1053
16906 kPa | 1052.9
16947 kPa | 1053
16988 kPa | 1052.9
17023 kPa | 1053
17065 kPa | 1053
17100 kPa | 1053
17142 kPa | 1053
17185 kPa | 1052.9
17221 kPa | 1053
17265 kPa | 1053.2
17301 kPa | 1053.1
17346 kPa | 1053.2
17383 kPa | 1053.1
17428 kPa | 1053.2
17464 kPa | 1053.2
17508 kPa | 1053.2
17552 kPa | 1053.1
17588 kPa | 1053.3
17632 kPa | 1053.3
17669 kPa | 1053.4
17713 kPa | 1053.5
17758 kPa | 1053.5
17796 kPa | 1053.4
17840 kPa | 1053.4
17887 kPa | 1053.5
17924 kPa | 1053.4
17970 kPa | 1053.5
18009 kPa | 1053.6
18056 kPa | 1053.6
18094 kPa | 1053.5
18141 kPa | 1053.6
18187 kPa | 1053.6
18226 kPa | 1053.6
18275 kPa | 1053.6
18315 kPa | 1053.9
18363 kPa | 1053.8
18405 kPa | 1053.7
18448 kPa | 1053.9
18497 kPa | 1053.9
18546 kPa | 1054
18588 kPa | 1053.9
18638 kPa | 1054
18681 kPa | 1054.1
18732 kPa | 1054
18784 kPa | 1054
18828 kPa | 1054.1
18881 kPa | 1054.2
18917 kPa | 1054
18955 kPa | 1054
18996 kPa | 1054.2
19030 kPa | 1054.2
19063 kPa | 1054.2
19103 kPa | 1054.2
19136 kPa | 1054.2
19176 kPa | 1054.3
19209 kPa | 1054.3
19248 kPa | 1054.3
19288 kPa | 1054.4
19321 kPa | 1054.3
19361 kPa | 1054.4
19395 kPa | 1054.3
19436 kPa | 1054.4
19477 kPa | 1054.5
19512 kPa | 1054.4
19553 kPa | 1054.5
19587 kPa | 1054.5
19629 kPa | 1054.5
19665 kPa | 1054.4
19707 kPa | 1054.6
19741 kPa | 1054.6
19783 kPa | 1054.5
19825 kPa | 1054.7
19861 kPa | 1054.7
19904 kPa | 1054.6
19940 kPa | 1054.8
19985 kPa | 1054.6
20021 kPa | 1054.8
20064 kPa | 1054.8
20101 kPa | 1054.9
20144 kPa | 1054.8
20189 kPa | 1054.9
20226 kPa | 1054.9
20270 kPa | 1054.9
20308 kPa | 1054.8
20479 kPa | 1055
20525 kPa | 1054.9
20562 kPa | 1055.1
20609 kPa | 1055.1
20648 kPa | 1055.1
20695 kPa | 1055.1
20735 kPa | 1055.3
20783 kPa | 1055.2
20823 kPa | 1055.3
20871 kPa | 1055.3
20911 kPa | 1055.3
20958 kPa | 1055.2
20997 kPa | 1055.3
21046 kPa | 1055.4
21087 kPa | 1055.4
21317 kPa | 1055.5
21366 kPa | 1055.5
21458 kPa | 1055.5
21510 kPa | 1055.6
21552 kPa | 1055.6
21603 kPa | 1055.7
21646 kPa | 1055.7
21698 kPa | 1055.6
21749 kPa | 1055.8
21792 kPa | 1055.7
21845 kPa | 1055.9
21889 kPa | 1055.9
21942 kPa | 1055.8
21986 kPa | 1055.9
22040 kPa | 1055.9
22093 kPa | 1056
22138 kPa | 1056
22194 kPa | 1056
22240 kPa | 1056.1
22297 kPa | 1056.1
22344 kPa | 1056.2
22399 kPa | 1056.2
22444 kPa | 1056.1
22501 kPa | 1056.1
22549 kPa | 1056.2
22606 kPa | 1056.2
22664 kPa | 1056.3
22714 kPa | 1056.3
22776 kPa | 1056.4
22829 kPa | 1056.3
22885 kPa | 1056.5
22917 kPa | 1056.4
22959 kPa | 1056.5
22993 kPa | 1056.4
23026 kPa | 1056.4
23065 kPa | 1056.6
23104 kPa | 1056.5
23137 kPa | 1056.6
23177 kPa | 1056.6
23211 kPa | 1056.7
23251 kPa | 1056.7
23285 kPa | 1056.7
23325 kPa | 1056.7
23359 kPa | 1056.7
23399 kPa | 1056.7
23440 kPa | 1056.7
23475 kPa | 1056.8
23516 kPa | 1056.9
23551 kPa | 1056.9
23593 kPa | 1056.9
23628 kPa | 1056.8
23670 kPa | 1056.9
23705 kPa | 1056.8
23747 kPa | 1056.8
23782 kPa | 1057
23825 kPa | 1057
23860 kPa | 1057
23902 kPa | 1057.1
23946 kPa | 1057.1
23981 kPa | 1057
24023 kPa | 1057.1
24066 kPa | 1057
24101 kPa | 1057.2
24145 kPa | 1057.1
24182 kPa | 1057.3
24225 kPa | 1057.1
24269 kPa | 1057.2
24306 kPa | 1057.2
24350 kPa | 1057.3
24387 kPa | 1057.4
24432 kPa | 1057.3
24470 kPa | 1057.3
24515 kPa | 1057.5
24560 kPa | 1057.4
24597 kPa | 1057.4
24642 kPa | 1057.4
24680 kPa | 1057.5
24726 kPa | 1057.6
24772 kPa | 1057.6
24810 kPa | 1057.5
24858 kPa | 1057.5
24897 kPa | 1057.6
24944 kPa | 1057.7
24991 kPa | 1057.6
25031 kPa | 1057.5
25070 kPa | 1057.7
25117 kPa | 1057.7
25165 kPa | 1057.7
25204 kPa | 1057.8
25252 kPa | 1057.8
25292 kPa | 1057.9
25340 kPa | 1057.9
25389 kPa | 1058
25431 kPa | 1057.9
25481 kPa | 1057.9
25523 kPa | 1058
25574 kPa | 1058.1
25618 kPa | 1058.1
25669 kPa | 1058
25712 kPa | 1058.1
25765 kPa | 1058.1
25816 kPa | 1058.1
25851 kPa | 1058.2
25889 kPa | 1058.2
25926 kPa | 1058.1
25957 kPa | 1058
25995 kPa | 1058.2
26027 kPa | 1058.1
26066 kPa | 1058.3
26106 kPa | 1058.3
26139 kPa | 1058.4
26171 kPa | 1058.3
26210 kPa | 1058.3
26243 kPa | 1058.4
26282 kPa | 1058.4
26320 kPa | 1058.4
26352 kPa | 1058.5
26392 kPa | 1058.5
26430 kPa | 1058.3
26463 kPa | 1058.4
26504 kPa | 1058.6
26538 kPa | 1058.6
26574 kPa | 1058.6
26615 kPa | 1058.5
26648 kPa | 1058.6
26688 kPa | 1058.6
26728 kPa | 1058.6
26761 kPa | 1058.6
26802 kPa | 1058.6
26836 kPa | 1058.7
26876 kPa | 1058.8
26918 kPa | 1058.7
26952 kPa | 1058.7
26994 kPa | 1058.8
27028 kPa | 1058.8
27070 kPa | 1058.9
27110 kPa | 1058.8
27145 kPa | 1058.8
27188 kPa | 1058.8
27223 kPa | 1059.1
27266 kPa | 1058.9
27301 kPa | 1059
27343 kPa | 1058.9
27385 kPa | 1059.2
27420 kPa | 1059
27464 kPa | 1059
27499 kPa | 1059
27542 kPa | 1059.1
27585 kPa | 1059.1
27622 kPa | 1059.2
27666 kPa | 1059.2
27702 kPa | 1059.2
27747 kPa | 1059.1
27784 kPa | 1059.3
27828 kPa | 1059.2
27865 kPa | 1059.3
27909 kPa | 1059.4
27953 kPa | 1059.4
27991 kPa | 1059.3
28035 kPa | 1059.4
28079 kPa | 1059.4
28117 kPa | 1059.3
28162 kPa | 1059.4
28200 kPa | 1059.5
28244 kPa | 1059.4
28290 kPa | 1059.5
28328 kPa | 1059.5
28374 kPa | 1059.6
28419 kPa | 1059.7
